Measurements as given in patent US20160102002A1, “WATER TREATMENT” (BWA WATER ADDITIVES UK LIMITED, priority 2014, published 2016).

How the values were obtained:
Desulfovibrio vulgaris = test: Log10 reduction of viable anaerobic bacteria in dosed high-TDS suspension (serial dilution into API RP 38 media vials); format: cell-based; conditions: pH 7 phosphate buffer, room temperature, ppm per example
Protocol: (§1) A suspension of Desulfovibrio vulgaris plus Enterobacter aerogenes bacteria containing from 1×10^6 to 1×10^8 cells/mL was prepared in sterile pH 7 phosphate buffer containing varying levels of sodium chloride to give the desired total dissolved solids (TDS) concentration. Aliquots of this suspension were dosed with the indicated concentrations of phosphonium compound (a) and stabilised halogen containing composition (b) with the concentrations being measured as ppm by weight of the stated composition in the dosed suspension. The mixtures were allowed to stand at room temperature. At the designated contact times, each mixture was sampled to determine the total number of viable cells of both Desulfovibrio vulgaris and Enterobacter aerogenes by serial 10-fold dilution into API RP 38 media vials and anaerobic acid producing media vials, respectively. The vials were incubated at 37° C. for 72 hours. Results were recorded as cells per milliliter. […]
(§2) The efficacy of the treatment agents was evaluated by measuring the Log 10 Reduction of the anaerobic bacterium Desulfovibrio vulgaris and the facultative anaerobeic bacterium Enterobacter aerogenes after contact times of 1 hour and 24 hours as detailed in Tables 1 and 2. […]

Enterobacter aerogenes = test: Log10 reduction of viable facultative anaerobic bacteria in dosed high-TDS suspension (serial dilution into anaerobic acid producing media vials); format: cell-based; conditions: pH 7 phosphate buffer, room temperature, ppm per example
Protocol: as §1, §2

[1] = TDS 100,000 mg l^-1, contact time 1 hour
[2] = TDS 100,000 mg l^-1, contact time 24 hours

SMILES | Log10 Reduction Anaerobes (Desulfovibrio vulgaris; [1]) | Log10 Reduction Facultative Anaerobes (Enterobacter aerogenes; [1]) | Log10 Reduction Anaerobes (Desulfovibrio vulgaris; [2]) | Log10 Reduction Facultative Anaerobes (Enterobacter aerogenes; [2])
CCCCCCCCCCCCCC[P+](CCCC)(CCCC)CCCC.[Cl-] [Example 3, tri n-butyl n-tetradecyl phosphonium chloride] | 0 | 0 |  | 
CCCCCCCCCCCCCC[P+](CCCC)(CCCC)CCCC.[Cl-] [Example 17, tri n-butyl n-tetradecyl phosphonium chloride] |  |  | 0 | 0
